Laboratory results from US6632829B2, “Sulfonamides and derivatives thereof that modulate the activity of endothelin” (Texas Biotechnology Corp., priority 1996, dated 2003).

Assays:
human ETB receptor = biological target: T1, human ETB receptor (Homo sapiens, UniProt P24530); test: Endothelin binding inhibition, Binding Test #2: competition with 125I-ET-1 for ETB receptors on transfected COS7 cell membranes
T1 construct: expressed in transfected cells; host or cells: COS7 cells
T1 sequence (P24530 27-442): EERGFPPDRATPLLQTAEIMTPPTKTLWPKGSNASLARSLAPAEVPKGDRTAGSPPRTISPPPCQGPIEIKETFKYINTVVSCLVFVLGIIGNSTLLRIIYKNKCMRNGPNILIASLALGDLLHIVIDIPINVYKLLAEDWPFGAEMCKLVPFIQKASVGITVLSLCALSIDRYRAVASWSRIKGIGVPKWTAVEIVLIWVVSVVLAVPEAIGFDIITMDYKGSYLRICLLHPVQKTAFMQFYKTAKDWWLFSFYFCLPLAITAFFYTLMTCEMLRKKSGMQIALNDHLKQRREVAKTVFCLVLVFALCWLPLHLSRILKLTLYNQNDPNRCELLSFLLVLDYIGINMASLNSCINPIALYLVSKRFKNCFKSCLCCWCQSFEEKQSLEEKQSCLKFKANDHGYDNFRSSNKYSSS
From the text: Compounds that are potential endothelin antagonists are identified by testing their ability to compete with ^125I-labeled ET-1 for binding to human ETA receptors or ETB receptors present on isolated cell membranes. The effectiveness of the test compound as an antagonist or agonist of the biological tissue response of endothelin can also be assessed by measuring the effect on endothelin induced contraction of isolated rat thoracic aortic rings. The ability of the compounds to act as antagonists or agonists for ETB receptors can be assess by testing the ability of the compounds are to inhibit endothelin-1 induced prostacyclin release from cultured bovine aortic endothelial cells.
COS7 cells were transfected with DNA encoding the ETB receptor, The resulting cells, which express the human ETB receptor, were grown to confluence in T-150 flasks. Membrane was prepared as described above. The binding assay was performed as described above using the membrane preparation diluted with binding buffer to a concentration of 1 μg/50 μL.
(§1) Briefly, the COS7 cells, described above, that had been transfected with DNA encoding the ETB receptor and express the human ETB receptor on their surfaces were grown to confluence in T-175 flasks. Cells from multiple flasks were collected by scraping, pooled and centrifuged for 10 min at 190×g. The cells were resuspended in phosphate buffered saline (PBS) containing 10 mM EDTA using a Tenbroeck homogenizer. The suspension was centrifuged at 4° C. 57,800×g for 15 min, the pellet was resuspended in 5 mL of buffer A (5 mM HEPES buffer, pH 7.4 containing aprotinin (100 KIU/mL)) and then frozen and thawed once. Five mL of Buffer B (5 mM HEPES Buffer, pH 7.4 containing 10 mM MnCl2 and 0.001% deoxyribonuclease Type 1) was added, the suspension mixed by inversion and then incubated at 37° C. for 30 minutes. The mixture was centrifuged at 57,800×g as described above, the pellet washed twice with buffer A and then resuspended in buffer C (30 mM HEPES buffer, pH 7.4 containing aprotinin (100 KIU/mL) to give a final protein concentration of 2 mg/mL.
The binding assay was performed as described above using the membrane preparation diluted to give 1 μg/50 μL of binding buffer.

human ETA receptors = biological target: T2, human ETA receptors (Homo sapiens, UniProt P25101); test: Endothelin binding inhibition, Binding Test #1: competition with 125I-ET-1 for ETA receptors on TE 671 cell membranes
T2 construct: endogenous in cells; host or cells: TE 671 cells (ATCC HTB 139), membrane preparation
T2 sequence (P25101 21-427): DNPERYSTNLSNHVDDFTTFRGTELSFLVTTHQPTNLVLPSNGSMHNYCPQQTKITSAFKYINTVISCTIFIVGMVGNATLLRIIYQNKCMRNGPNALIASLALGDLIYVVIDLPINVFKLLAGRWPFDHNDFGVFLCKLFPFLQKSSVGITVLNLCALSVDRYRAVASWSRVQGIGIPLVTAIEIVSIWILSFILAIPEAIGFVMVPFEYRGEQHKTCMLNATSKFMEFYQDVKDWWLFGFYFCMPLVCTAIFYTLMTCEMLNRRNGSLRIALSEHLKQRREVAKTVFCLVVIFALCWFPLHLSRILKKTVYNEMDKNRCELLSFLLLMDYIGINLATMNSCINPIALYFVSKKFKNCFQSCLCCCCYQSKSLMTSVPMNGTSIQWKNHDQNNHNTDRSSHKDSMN
Procedure: as §1, with “Cells from” for “Briefly, the COS7 cells, described above, that had been transfected with DNA encoding the ETB receptor and express the human ETB receptor on their surfaces were grown to confluence in T-175 flasks. Cells from”, “4° C. at 57,800×g for” for “4° C. 57,800×g for”, “thawed once. 5 mL of” for “thawed once. Five mL of”, “of 2 mg/mL and stored at −70° C. until use.” for “of 2 mg/mL.”
The membrane suspension (50 μL), containing up to 8 μg of membrane protein, was added to each of (A), (B), or (C). […] Alternatively, the incubation was conducted at 24° C.
The supernatant, containing unbound radioactivity, was decanted and the pellet counted on a Genesys multiwell gamma counter. The degree of inhibition of binding (D) was calculated according to the following equation: [formula]
Each test was generally performed in triplicate.

[1] = incubation at 24° C. (values marked †)
[2] = incubation at 4° C. (values without †)

Row | Compound | IC50 (human ETB receptor; [1]) | IC50 (human ETA receptors; [1]) | IC50 (human ETB receptor; [2]) | IC50 (human ETA receptors; [2]) | inhibition at 100 µM (human ETB receptor; read-out: ETB % inhibition @ 100 μM, @ 100 μM, incubation at 24° C.)
1 | Cc1ccc(CCc2ccsc2S(=O)(=O)Nc2onc(C)c2Br)cc1 [N-(4-bromo-3-methyl-5-isoxazolyl)-3-(4-methylphenethyl)thiophene-2-sulfonamide] | 9.4 µM | 347 nM | – | – | –
2 | Cc1cccc(-c2ccsc2S(=O)(=O)Nc2onc(C)c2Br)c1 [N-(4-bromo-3-methyl-5-isoxazolyl)-3-(3-tolyl)thiophene-2-sulfonamide] | 21.2 µM | 832 nM | – | – | –
3 | Cc1noc(NS(=O)(=O)c2ccsc2CO)c1Br [N-(4-bromo-3-methyl-5-isoxazolyl)-2-(hydroxymethyl)thiophene-3-sulfonamide] | – | 1550 nM | 44.1 µM | 160 nM | –
4 | Cc1noc(NS(=O)(=O)c2ccsc2C(=O)Oc2ccccc2)c1Cl [N-(4-chloro-3-methyl-5-isoxazolyl)-2-(phenoxycarbonyl)thiophene-3-sulfonamide] | – | 4410 nM | – | – | 31%
5 | Cc1noc(NS(=O)(=O)c2sccc2Cc2ccc3c(c2)OCO3)c1Br [N-(4-bromo-3-methyl-5-isoxazolyl)-3-[(3,4-methylenedioxy)benzyl]thiophene-2-sulfonamide] | 3.2 µM | 8100 nM | – | – | –
6 | CC(=O)OCCc1cc2c(cc1NC(=O)c1sccc1S(=O)(=O)Nc1onc(C)c1Cl)OCO2 [N-(4-chloro-3-methyl-5-isoxazolyl)-2-[3,4-(methylenedioxy)-6-(2-acetoxyethyl)phenylaminocarbonyl]thiophene-3-sulfonamide] | 25.7 µM | 4.5 nM | – | – | –
7 | Cc1cccc(OC(=O)c2sccc2S(=O)(=O)Nc2onc(C)c2Br)c1 [N-(4-bromo-3-methyl-5-isoxazolyl)-2-[(3-methylphenoxy)carbonyl]thiophene-3-sulfonamide] | 111 µM | 1200 nM | – | – | –
8 | COc1cccc(OC(=O)c2sccc2S(=O)(=O)Nc2onc(C)c2Br)c1 [N-(4-bromo-3-methyl-5-isoxazolyl)-2-[(3-methoxylphenoxy)carbonyl]thiophene-3-sulfonamide] | 90 µM | 790 nM | – | – | –
9 | CC(=O)OCCOc1cc2c(cc1NC(=O)c1sccc1S(=O)(=O)Nc1onc(C)c1Cl)OCO2 [N-(4-chloro-3-methyl-5-isoxazolyl)-2-[3,4-(methylenedioxy)-6-(2-acetoxyethoxy)]phenylaminocarbonyl]thiophene-3-sulfonamide] | ~18 µM | ~20 nM | – | – | –
10 | Cc1noc(NS(=O)(=O)c2ccsc2NC(=O)Oc2ccc3c(c2)OCO3)c1Br [N-(4-bromo-3-methyl-5-isoxazolyl)-2-[3,4-(methylenedioxy)phenoxycarbonylamino]thiophene-3-sulfonamide] | 5.9 µM | 87 nM | – | – | –

Second part, the compound after the results:

Row | IC50 (human ETB receptor; [1]) | IC50 (human ETA receptors; [1]) | IC50 (human ETB receptor; [2]) | IC50 (human ETA receptors; [2]) | inhibition at 100 µM (human ETB receptor; read-out: ETB % inhibition @ 100 μM, @ 100 μM, incubation at 24° C.) | Compound
11 | ~18 µM | ~10 nM | – | – | – | Cc1noc(NS(=O)(=O)c2ccsc2C(=O)Nc2cc3c(cc2OCCO)OCO3)c1Cl [N-(4-chloro-3-methyl-5-isoxazolyl)-2-[3,4-(methylenedioxy)-6-(2-hydroxyethoxy)phenylaminocarbonyl]thiophene-3-sulfonamide]
12 | 1.86 µM | 49 nM | – | – | – | Cc1cc(C)c(C=CCc2ccsc2S(=O)(=O)Nc2onc(C)c2Br)c(C)c1 [N-(4-bromo-3-methyl-5-isoxazolyl)-3-(2,4,6-trimethylcinnamyl)thiophene-2-sulfonamide]
13 | 9.8 µM | 17 nM | – | – | – | Cc1noc(NS(=O)(=O)c2ccsc2C(=O)Nc2ccc3c(c2)OCO3)c1Br [N-(4-bromo-3-methyl-5-isoxazolyl)-2-[(3,4-methylenedioxyphenyl)aminocarbonyl]thiophene-3-sulfonamide]
14 | 3.31 µM | 155 nM | – | – | – | Cc1noc(NS(=O)(=O)c2sccc2-c2ccc(CCC(C)C)cc2)c1Br [N-(4-bromo-3-methyl-5-isoxazolyl)-3-(4-iso-pentylphenyl)thiophene-2-sulfonamide]
15 | 60.3 µM | 100 nM | – | – | – | Cc1ccc(-c2ccsc2S(=O)(=O)Nc2onc(C)c2Br)c(C)c1 [N-(4-bromo-3-methyl-5-isoxazolyl)-3-(2,4-dimethylphenyl)thiophene-2-sulfonamide]
16 | 22.4 µM | 11.9 nM | – | – | – | Cc1cc(C)c(C(=O)O)c(C)c1NC(=O)c1sccc1S(=O)(=O)Nc1onc(C)c1Cl [N-(4-chloro-3-methyl-5-isoxazolyl)-2-(3-carboxyl-2,4,6-trimethylphenylaminocarbonyl)thiophene-3-sulfonamide]
17 | 3.08 µM | 0.88 nM | – | – | – | Cc1cc(C)c(NC(=O)c2sccc2S(=O)(=O)Nc2noc(C)c2Cl)c(C)c1CO [N-(4-chloro-5-methyl-3-isoxazolyl)-2-(3-hydroxymethyl-2,4,6-trimethylphenylaminocarbonyl)thiophene-3-sulfonamide]
18 | ~0.7 µM | ~300 nM | – | – | – | Cc1noc(NS(=O)(=O)c2ccsc2C(=O)Cc2cc3c(cc2C#N)OCO3)c1Cl [N-(4-chloro-3-methyl-5-isoxazolyl)-2-[2-cyano-4,5-(methylenedioxy)phenylacetyl]thiophene-3-sulfonamide]
19 | 3.48 µM | 55.5 nM | – | – | – | Cc1ccc(CCc2sccc2S(=O)(=O)Nc2onc(C)c2Br)c(C)c1 [N-(4-bromo-3-methyl-5-isoxazolyl)-2-(2,4-dimethylphenethyl)thiophene-3-sulfonamide]
20 | 3.6 µM | 0.8 nM | – | – | – | Cc1ccc(CC(=O)c2sccc2S(=O)(=O)Nc2onc(C)c2Br)c(C)c1 [N-(4-bromo-3-methyl-5-isoxazolyl)-2-(2,4-dimethylphenylacetyl)thiophene-3-sulfonamide]
21 | 43.7 µM | 23 nM | – | – | – | Cc1ccc(NC(=O)c2sccc2S(=O)(=O)Nc2onc(C)c2Cl)nc1 [N-(4-chloro-3-methyl-5-isoxazolyl)-2-[(3-methyl-6-pyridyl)aminocarbonyl]thiophene-3-sulfonamide]
22 | 1.23 µM | 41.7 nM | – | – | – | Cc1cc(C)c(CCc2sccc2S(=O)(=O)Nc2onc(C)c2Br)c(C)c1 [N-(4-bromo-3-methyl-5-isoxazolyl)-2-(2,4,6-trimethylphenethyl)thiophene-3-sulfonamide]
23 | 8.3 µM | 7.3 nM | – | – | – | N-(4-chloro-3-methyl-5-isoxazolyl)-2-[2-hydroxypropyl-4,5-(methylenedioxy)phenylaminocarbonyl]thiophene-3-sulfonamide
24 | 19.1 µM | 30 nM | – | – | – | COc1cccc(CC(=O)c2sccc2S(=O)(=O)Nc2onc(C)c2Br)c1 [N-(4-bromo-3-methyl-5-isoxazolyl)-2-[(3-methoxyphenyl)acetyl]thiophene-3-sulfonamide]
